From patent US4970301A, “2-(piperazinyl)-2-oxoethylene-substituted flavonoid compounds” (Adir et Cie, priority 1987, dated 1990)

What was measured:
Solubility in water = assay type: physicochemical; settings: addition salt
[1] = tested on: Croton Oil-Induced Edema of the Mouse's Ear; assay: Croton oil-induced edema of the mouse's ear; assay type: in vivo, CD1 (Charles River) male mice; settings: single dose, sacrificed six hours after irritation
Method: Croton Oil-Induced Edema of the Mouse's Ear This test consists in inflaming the mouse's ears with an irritant solution based on croton oil, and in testing the preventive effect of the test compounds administered per os. The tests were carried out on batches of at least 8 CD1 (Charles River) male mice of average weight 18-20 g. The compounds of the invention were administered by gavage with a tube, in a single dose, on the basis of 0.1 ml of liquid per 10 g of mouse. The mouse was deprived of food, but not of drink, 2 hours before the gavage and until after the irritation. Thirty minutes after the gavage, each mouse was lightly anesthetized with ether. 10 μl of the irritant solution were then deposited by means of an Eppendorf pipette on the cutaneous surface of the pinna of the right ear; the left ear, which was not subjected to any treatment, acted as control. The animal was then replaced in the cage and sacrificed six hours later. The ears were sectioned along the cartilagineous edge and weighed immediately. To assess the activity of the product, the mean increase in weight of the ears of the treated batches (m) is compared by Student's test with that of the untreated control batch (mc).

phosphodiesterase = assay: Inhibition of the degradation of cyclic AMP by phosphodiesterase (spectrophotometry); assay type: biochemical; settings: rat brain enzyme extract, 25° C., 265 nm
Method: Inhibition of the Degredation Reaction of Cyclic AMP by Phosohodiesterase
The enzyme extract necessary for this study is prepared from rat brain.
After decapitation, the brain is removed, weighed and frozen for half an hour at -70° C. The preparation, maintained in ice, is then diluted and homogenized in 50% glycerol containing 50 mmol tris(hydroxymethyl)aminomethane and 50 mmol magnesium sulfate, in the proportion of 5 ml per gram of brain. The preparation is then centrifuged. The supernatent is distributed in aliquots and stored at 4° C.
In the study, the enzyme extract is incubated :n the presence of cyclic AMP (Boehringer® Ref. 102300), alkaline phosphatase (Boehringer® Ref 108138), adenosine deaminase (Boehringer® Ref. 102091) and increasing amounts of the compounds of the invention. The kinetics of the degredation of cyclic AMP is followed by spectrophotometry at 25° C. A mixture devoid of alkaline phosphatase and adenosine deaminase is used as blank. The measurement of the optical density is carried out at 265 nm. The concentration of the compounds of the invention leading to a 50% inhibition of the enzymatic reaction (IC50) is calculated. Two reference substances, diosmine and theoprylline, are studied according to the same methodology.

[2] = tested on: polymorphonuclear leukocytes; assay: Oxygen-containing free radical production by polymorphonuclear leukocytes (chemiluminescence); assay type: cell-based; settings: Leukocyte; rat polymorphonuclear leukocytes, Zymosan, Luminol; read-out: IC50, inhibition of the chemiluminescence reaction (free radical production)
From the text: Evaluation of the Pharmacodynamic Activity with Respect to Oxygen-Containing Free Radicals Produced by Polymorphonuclear Leukocytes The possible pharmacodynamic activity of the compounds of the invention with respect to the production of free radicals by polymorphonuclear leukocytes was investigated in vitro. The cellular model used was rat polymorphonuclear leukocytes. This model is capable of producing free radicals in a manner that can be monitored. The production of free radicals was quantified by measurement of the chemiluminescence, which is proportional to their quantity. Quantities of 2×10^6 polymorphonuclear leukocyte cells, isolated from heparinized rat blood, are mixed with solutions of increasing concentrations of the compounds of the invention (2×10^-4 M to 2×10^-8 M). Appropriate amounts of Hanks' solution, Zymosan® (Sigma 24250) and Luminol® (Merck 82007) are then added successively. The solutions are kept shielded from the light, and transferred rapidly to a liquid scintillation counter. In the "blank" sample, the polymorphonuclear leukocytes are replaced by an equivalent volume of Hanks' solution, and in the "control" sample, the solution of "test compounds" is replaced by a Hanks' solution. The same study was carried out with a reference product: diosmine. The percentage inhibition of free radical production was calculated by the following formula: [formula] Cl control: Maximum chemiluminescence of "control" sample Cl compounds: Maximum chemiluminescence of "test compounds" sample Cl blank: Maximum chemiluminescence of "blank" sample […]

Structure (SMILES) | solubility (Solubility in water) [mg/mL] | IC50 (phosphodiesterase) [µM] | further results
CCOC(=O)COc1cc(OCC(=O)N2CCN(Cc3ccc(OC)c(OC)c3OC)CC2)c2c(=O)cc(-c3ccc(OC)c(OCC(=O)OCC)c3)oc2c1.Cl [Example 2 (hydrochloride), 5-[2-{4-[(2,3,4-Trimethoxyphenyl)methyl]-1-piperazinyl}-2-oxoethoxy]-7,3'-bis(2-ethoxy-2-oxoethoxy)-4'-methoxyflavone hydrochloride] | 163 |  | I (percentage inhibition of ear edema) ([1]; 166 mg.kg^-1 per os, p < 0.05): -34%
COc1ccc(-c2cc(=O)c3c(O)cc(O)cc3o2)cc1OCC(=O)N1CCN(Cc2ccc(OC)c(OC)c2OC)CC1 [Example 5 (methanesulfonate), 3'-[2-{4-[(2,3,4-trimethoxyphenyl)methyl]-1-piperazinyl}-2-oxoethoxy]-4'-methoxy-5,7-dihydroxyflavone] | 35 |  | 
CCOC(=O)COc1cc(O)c2c(=O)cc(-c3ccc(OC)c(OCC(=O)N4CCN(Cc5ccc(OC)c(OC)c5OC)CC4)c3)oc2c1 [Example 6 (monophosphate), 3'[2-{4-[(2,3,4-Trimethoxyphenyl)methyl]-1-piperazinyl}-2-oxoethoxy]-4'-methoxy-5-hydroxy-7-(2-ethoxy-2-oxoethyoxy)flavone phosphate] | 39.5 |  | 
CCOC(=O)COc1cc(-c2cc(=O)c3c(O)cc(OCC(=O)N4CCN(Cc5ccc(OC)c(OC)c5OC)CC4)cc3o2)ccc1OC [Example 1 (monophosphate), 7-[2-{4-[(2,3,4-trimethoxyphenyl)methyl]-1-piperazinyl}-2-oxoethoxy-5-hydroxy-4'-methoxy-3'-(2-ethoxy-2-oxoethoxy)flavone monophosphate] | 158 |  | 
COc1ccc(C2CC(=O)c3c(O)cc(OCC(=O)N4CCN(Cc5ccc(OC)c(OC)c5OC)CC4)cc3O2)cc1O (stereo not drawn) [Example 8, 7-[2-{4-[(2,3,4-Trimethoxyphenyl)methyl]-1-piperazinyl}-2-oxoethoxy]-5,3'-dihydroxy-4'-methoxyflavanone] |  | 57 | IC50 [2]: 15 µM
COc1ccc(-c2cc(=O)c3c(O)cc(O[C@@H]4O[C@H](CO[C@@H]5O[C@@H](C)[C@H](O)[C@@H](O)[C@H]5O)[C@@H](O)[C@H](O)[C@H]4O)cc3o2)cc1OCC(=O)N1CCN(Cc2ccc(OC)c(OC)c2OC)CC1 [Example 3, 3'-[2-{4-[(2,3,4-Trimethoxyphenyl)methyl]-1-piperazinyl}-2-oxoethoxy]-4'-methoxy-5-hydroxyflavone 7-chamnoglucoside] |  | 25 | 
COc1ccc(-c2cc(=O)c3c(O)cc(O[C@@H]4O[C@H](CO)[C@@H](O)[C@H](O)[C@H]4O)cc3o2)cc1OCC(=O)N1CCN(Cc2ccc(OC)c(OC)c2OC)CC1 [Example 4 (monophosphate), 3'-[2-{4-[(2,3,4-Trimethoxyphenyl)methyl]-1-piperazinyl}-2-oxoethoxy]-4'-methoxy-5-hydroxyflavone 7β-glucoside monophosphate] | 43 |  | I (percentage inhibition of ear edema) ([1]; 173 mg.kg^-1 per os, p < 0.05): -28%
COc1ccc(C2CC(=O)c3c(O)cc(OCC(=O)N4CCN(Cc5ccc(OC)c(OC)c5OC)CC4)cc3O2)cc1O.CS(=O)(=O)O (stereo not drawn) [Example 8 (methanesulfonate), 7-[2-{4-[(2,3,4-Trimethoxyphenyl)methyl]-1-piperazinyl}-2-oxoethoxy]-5,3'-dihydroxy-4'-methoxyflavanone methanesulfonate] | 1.4 |  | 
COc1ccc(-c2cc(=O)c3c(O)cc(OCC(=O)N4CCN(Cc5ccc(OC)c(OC)c5OC)CC4)cc3o2)cc1OCC(=O)N1CCN(Cc2ccc(OC)c(OC)c2OC)CC1 [Example 7 (biphosphate), 7,3'-Bis[2-{4-[(2,3,4-trimethoxyphenyl)methyl]-1-piperazinyl}-2-oxoethoxy]-5-hydroxy-4'-methoxyflavone biphosphate] | 221 |  | 
CCOC(=O)COc1cc(O)c2c(=O)cc(-c3ccc(OC)c(OCC(=O)N4CCN(Cc5ccc(OC)c(OC)c5OC)CC4)c3)oc2c1 [Example 6, 3'-[2-{4-[(2,3,4-Trimethoxyphenyl)methyl]-1-piperazinyl}-2-oxoethoxy]-4'-methoxy-5-hydroxy-7-(2-ethoxy-2-oxoethoxy)flavone] |  |  | IC50 [2]: 10 µM
COc1ccc(-c2cc(=O)c3c(O)cc(O[C@@H]4O[C@H](CO[C@@H]5O[C@@H](C)[C@H](O)[C@@H](O)[C@H]5O)[C@@H](O)[C@H](O)[C@H]4O)cc3o2)cc1OCC(=O)N1CCN(Cc2ccc(OC)c(OC)c2OC)CC1 [Example 3 (hemitartrate), 3'-[2-{4-[(2,3,4-Trimethoxyphenyl)methyl]-1-piperazinyl}-2-oxoethoxy]-4'-methoxy-5-hydroxyflavone 7-chamnoglucoside hemitartrate] | 200 |  | I (percentage inhibition of ear edema) ([1]; 200 mg.kg^-1 per os, p < 0.01): -26%
Cn1c(=O)c2[nH]cnc2n(C)c1=O [THEOPHYLLINE, theophylline, reference compound] |  | 1000 | 
CCOC(=O)COc1cc(OCC(=O)N2CCN(Cc3ccc(OC)c(OC)c3OC)CC2)c2c(=O)cc(-c3ccc(OC)c(OCC(=O)OCC)c3)oc2c1 [Example 2, 5-[2-{4-[(2,3,4-Trimethoxyphenyl)methyl]-1-piperazinyl}-2-oxoethoxy-]-7,3'-bis(2-ethoxy-2-oxoethoxy)-4'-methoxyflavone] |  | 20 | IC50 [2]: 4 µM
COc1ccc(-c2cc(=O)c3c(O)cc(O[C@@H]4O[C@H](CO[C@@H]5O[C@@H](C)[C@H](O)[C@@H](O)[C@H]5O)[C@@H](O)[C@H](O)[C@H]4O)cc3o2)cc1O [DIOSMINE, diosmine, reference compound] |  | 100 | IC50 [2]: 40 µM
COc1ccc(-c2cc(=O)c3c(O)cc(OCC(=O)N4CCN(Cc5ccc(OC)c(OC)c5OC)CC4)cc3o2)cc1OCC(=O)N1CCN(Cc2ccc(OC)c(OC)c2OC)CC1 [Example 7, 7,3'-Bis[2-{4-[(2,3,4-trimethoxyphenyl)methyl]-1-piperazinyl}-2-oxoethoxy]-5-hydroxy-4'-methoxyflavone] |  | 10 | 
